Laboratory results as given in patent publication US20110045101A1, “FUNGICIDAL SUBSTITUTED AZOLES” (E.I. Du Pont De Nemours and Company, priority 2009, published 2011).
Marks after values point to notes of the source that are not given here.

Tests used:
Type in all cases: in vivo
Settings in all cases: 100 = 100% disease control
Botrytis cinerea = assay: Test C: tomato Botrytis on tomato seedlings, sprayed the day before inoculation, visual disease rating
Text: General protocol for preparing test suspensions for Tests A-J: The test compounds were first dissolved in acetone in an amount equal to 3% of the final volume and then suspended at the desired concentration (in ppm) in acetone and purified water (50/50 mix) containing 250 ppm of the surfactant Trem® 014 (polyhydric alcohol esters). The resulting test suspensions were then used in tests A-J. Spraying a 200 ppm test suspension to the point of run-off on the test plants was the equivalent of a rate of 500 g/ha. […] The test suspension was sprayed to the point of run-off on tomato seedlings. […] A dash (-) indicates no test results. All results are for 200 ppm except where followed by “*”, which indicates 40 ppm.

Alternaria solani = assay: Test D: tomato early blight, sprayed the day before inoculation, visual disease rating
Text: (§1) General protocol for preparing test suspensions for Tests A-J: The test compounds were first dissolved in acetone in an amount equal to 3% of the final volume and then suspended at the desired concentration (in ppm) in acetone and purified water (50/50 mix) containing 250 ppm of the surfactant Trem® 014 (polyhydric alcohol esters). The resulting test suspensions were then used in tests A-J. Spraying a 200 ppm test suspension to the point of run-off on the test plants was the equivalent of a rate of 500 g/ha. […] The test suspension was sprayed to the point of run-off on wheat seedlings. […] A dash (-) indicates no test results. All results are for 200 ppm except where followed by “*”, which indicates 40 ppm.

Septoria nodorum = assay: Test F: wheat glume blotch on wheat seedlings, sprayed the day before inoculation, visual disease rating
Text: as §1

Septoria tritici = assay: Test G: wheat leaf blotch on wheat seedlings, sprayed the day before inoculation, visual disease rating
Text: General protocol for preparing test suspensions for Tests A-J: The test compounds were first dissolved in acetone in an amount equal to 3% of the final volume and then suspended at the desired concentration (in ppm) in acetone and purified water (50/50 mix) containing 250 ppm of the surfactant Trem® 014 (polyhydric alcohol esters). The resulting test suspensions were then used in tests A-J. Spraying a 200 ppm test suspension to the point of run-off on the test plants was the equivalent of a rate of 500 g/ha. […] The test suspension was sprayed to the point of run-off on wheat seedlings. The following day the seedlings were inoculated with a spore suspension of Septoria tritici (the causal agent of wheat leaf blotch) and incubated in saturated atmosphere at 24° C. for 48 h, and then moved to a growth chamber at 20° C. for 19 days, after which time visual disease ratings were made. […] A dash (-) indicates no test results. All results are for 200 ppm except where followed by “*”, which indicates 40 ppm.

[1] = test system: Puccinia recondita f. sp. tritici; assay: Test I: wheat leaf rust on wheat seedlings, sprayed the day before inoculation, visual disease rating
Text: as §1

[2] = test system: Erysiphe graminis f. sp. tritici; assay: Test J: wheat powdery mildew on wheat seedlings, sprayed the day before inoculation, visual disease rating
Text: as §1

[3] = 200 ppm, 0 = no control relative to controls

| Structure (SMILES) | Test C disease control rating (Botrytis cinerea; [3]) [%] | Test D disease control rating (Alternaria solani; [3]) [%] | Test F disease control rating (Septoria nodorum; [3]) [%] | Test G disease control rating (Septoria tritici; [3]) [%] | Test I disease control rating [1, 3] [%] | Test J disease control rating [2, 3] [%] | Test C disease control rating (Botrytis cinerea; 40 ppm (marked *)) | Test D disease control rating (Alternaria solani; 40 ppm (marked *)) | Test F disease control rating (Septoria nodorum; 40 ppm (marked *)) | Test G disease control rating (Septoria tritici; 40 ppm (marked *)) | Test I disease control rating ([1]; 40 ppm (marked *)) | Test J disease control rating ([2]; 40 ppm (marked *)) |
| --- | --- | --- | --- | --- | --- | --- | --- | --- | --- | --- | --- | --- |
| Fc1ccccc1-n1c(Br)nc(Cl)c1-c1c(F)cccc1F [compound 58] | 98 | 100 | 51 | 79 | 99 | 100 |  |  |  |  |  |  |
| COc1cc(F)c(-c2c(Br)nc(C)n2-c2ccc(Cl)cc2)c(F)c1C [compound 59] |  |  |  |  |  |  | 93* % | 100* % | 82* % | 97* % | 86* % | 97* % |
| Cc1nn(C)c(-c2c(F)cccc2Cl)c1-c1ccc(Cl)cc1 [compound 61] | 40 | 0 | 0 | 60 | 92 | 99 |  |  |  |  |  |  |
| Cc1nn(C)c(-c2c(F)cccc2Cl)c1-c1cccc(F)c1 [compound 62] | 94 | 0 | 0 | 5 | 0 | 81 |  |  |  |  |  |  |
| Cc1nn(C)c(-c2c(F)cccc2Cl)c1-c1ccc(Cl)c(F)c1 [compound 63] | 0 | 0 | 0 | 33 | 41 | 100 |  |  |  |  |  |  |
| Cc1nc(Cl)c(-c2c(F)cccc2F)n1-c1ccccc1F [compound 64] | 99 | 100 | 95 | 95 | 100 | 96 |  |  |  |  |  |  |
| Fc1cccc(F)c1-c1c(Cl)nc(Br)n1-c1ccc(Br)cc1 [compound 66] | 99 | 100 | 99 | 94 | 99 | 99 |  |  |  |  |  |  |
| Cc1nn(C)c(-c2c(F)cccc2F)c1-c1ccc(Cl)c(F)c1 [compound 68] | 0 | 0 | 0 | 40 | 9 | 99 |  |  |  |  |  |  |
| Cc1nn(C)c(-c2c(F)cc(F)cc2F)c1-c1ccc(Cl)cc1 [compound 69] | 74 | 99 | 0 | 25 | 0 | 97 |  |  |  |  |  |  |
| Cc1nn(C)c(-c2c(F)cc(F)cc2F)c1-c1cccc(F)c1 [compound 70] | 71 | 0 | 0 | 0 | 0 | 0 |  |  |  |  |  |  |
| Cc1nn(C)c(-c2c(F)cc(F)cc2F)c1-c1ccc(Cl)c(F)c1 [compound 71] | 47 | 33 | 0 | 2 | 9 | 56 |  |  |  |  |  |  |
| Fc1ccc(-n2c(Br)nc(Cl)c2-c2c(F)cccc2F)cc1 [compound 72] | 96 | 100 | 92 | 97 | 99 | 100 |  |  |  |  |  |  |
| Cc1nc(Cl)c(-c2c(F)cccc2F)n1-c1cc(F)cc(F)c1 [compound 73] | 100 | 100 | 60 | 87 | 100 | 100 |  |  |  |  |  |  |
| Fc1ccc(F)c(-c2c(Cl)ncn2-c2ccc(Cl)cc2)c1Cl [compound 74] | 98 | 96 | 31 | 98 | 99 | 99 |  |  |  |  |  |  |
| Fc1ccc(Br)c(F)c1-c1c(Cl)ncn1-c1ccc(Cl)cc1 [compound 75] | 98 | 93 | 0 | 95 | 77 | 98 |  |  |  |  |  |  |
| Fc1ccc(F)c(-c2c(Cl)nc(Br)n2-c2ccc(Cl)cc2)c1Cl [compound 76] | 37 | 99 | 60 | 97 | 99 | 100 |  |  |  |  |  |  |
| COc1cc(F)c(-c2c(-c3ccc(Cl)cc3)c(C)nn2C)c(F)c1 [compound 77] | 98 | 100 | 82 | 97 | 99 | 100 |  |  |  |  |  |  |
| COc1cc(F)c(-c2c(-c3cccc(F)c3)c(C)nn2C)c(F)c1 [compound 78] | 91 | 100 | 0 | 92 | 99 | 100 |  |  |  |  |  |  |
| COc1cc(F)c(-c2c(-c3ccc(Cl)c(F)c3)c(C)nn2C)c(F)c1 [compound 79] | 53 | 97 | 0 | 95 | 92 | 100 |  |  |  |  |  |  |
| Cc1nc(Cl)c(-c2c(F)ccc(F)c2Cl)n1-c1ccc(Cl)cc1 [compound 80] | 90 | 100 | 100 | 98 | 100 | 100 |  |  |  |  |  |  |
| Cc1nc(Cl)c(-c2c(F)cccc2F)n1-c1ccc(OC(F)(F)F)cc1 [compound 81] | 81 | 100 | 69 | 93 | 98 | 100 |  |  |  |  |  |  |
| Cc1ccc(-n2c(C)nc(Cl)c2-c2c(F)cccc2F)cc1 [compound 82] | 90 | 100 | 100 | 91 | 99 | 100 |  |  |  |  |  |  |
| Cc1nc(Cl)c(-c2c(F)cccc2F)n1-c1ccc(F)cc1 [compound 83] | 97 | 100 | 99 | 98 | 100 | 100 |  |  |  |  |  |  |
| Fc1cccc(F)c1-c1c(Cl)nc(Br)n1-c1ccc(C(F)(F)F)cc1 [compound 84] | 0 | 99 | 0 | 88 | 91 | 99 |  |  |  |  |  |  |
| Fc1ccc(F)c(-c2c(Cl)nc(Br)n2-c2ccc(Cl)cc2)c1 [compound 85] | 73 | 100 | 11 | 98 | 96 | 100 |  |  |  |  |  |  |
| Fc1cccc(C(F)(F)F)c1-c1c(Cl)nc(Br)n1-c1ccc(Cl)cc1 [compound 86] | 0 | 0 | 0 | 93 | 27 | 99 |  |  |  |  |  |  |
